The source of these data is ChEMBL document CHEMBL3784922, “D-Amino acid oxidase inhibitors based on the 5-hydroxy-1,2,4-triazin-6(1H)-one scaffold” (Bioorg Med Chem Lett, 2016).

Data set [1] deals with D-amino-acid oxidase (Homo sapiens, UniProt P14920). The experiment in a line: Inhibition of recombinant human DAAO assessed as oxidative deamination of D-serine in presence of molecular oxygen and FAD after 20 mins.
A short description of data set [2]: Metabolic stability in mouse liver microsomes assessed as compound remaining after 60 mins by LC-MS/MS analysis in presence of NADPH. The data set is classed as ADME. The following applies: for Stability: microsomes, 1 h. For orientation: Liver microsomes are a subcellular fraction often used to study metabolism.
Data set [3] in a line: Metabolic stability in mouse liver microsomes assessed as compound remaining after 60 mins by LC-MS/MS analysis in presence of UDPGA. The data set is classed as ADME. The following applies: for Stability: microsomes, 1 h.
The species named for data set [4] is Mus musculus. The note with it: CD-1.
For data set [5], the system named is Mus musculus. Description: In-vivo inhibition of DAAO in CD-1 mouse assessed as increase in D-serine AUC (0 to 6 hrs) at 30 mg/kg, po relative to control. It is filed as functional.
Data set [6] can be described thus: Tmax in CD-1 mouse plasma by HPLC-MS analysis. It is filed as ADME, organism-based.
A short description of data set [7]: Plasma protein binding in CD-1 mouse at 30 mg/kg, po by ultrafiltration technique. The note with it: read-out: PPB (converted). The data set is classed as ADME, organism-based.
The test system of data set [8] is Mus musculus. Description: In-vivo inhibition of DAAO in CD-1 mouse assessed as plasma clearance of D-serine at 30 mg/kg, po after 3 hrs. It is filed as organism-based.
In data set [9] the test system is Mus musculus. The experiment in a line: AUC (0 to 6 hrs) in CD-1 mouse plasma at 30 mg/kg, po by HPLC-MS analysis. The note with it: in vivo. Further details: time < 6 hr, dose 30 mg/kg, route oral; call rule not given here. The data set is classed as ADME, organism-based.
Data set [10] concerns Mus musculus. The experiment in a line: In-vivo inhibition of DAAO in CD-1 mouse assessed as plasma clearance of D-serine at 30 mg/kg, po upto 3 hrs. The data set is classed as organism-based.
Where [11] appears, read: liver microsomes, read-out: Stability.

Where only a bound is given, the exact number is not on record here.

D-amino-acid oxidase, sequence (P14920 whole entry): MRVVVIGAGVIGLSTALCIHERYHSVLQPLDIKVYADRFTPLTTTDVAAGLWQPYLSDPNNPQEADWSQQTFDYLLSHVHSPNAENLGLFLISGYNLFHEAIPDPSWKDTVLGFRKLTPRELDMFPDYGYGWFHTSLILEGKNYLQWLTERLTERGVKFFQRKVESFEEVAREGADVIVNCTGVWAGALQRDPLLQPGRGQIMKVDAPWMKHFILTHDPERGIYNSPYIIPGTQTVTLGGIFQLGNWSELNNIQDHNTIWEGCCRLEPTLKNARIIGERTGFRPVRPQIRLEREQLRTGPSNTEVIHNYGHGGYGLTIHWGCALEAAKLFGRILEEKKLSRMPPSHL

The IC50 is the point on the concentration scale where inhibition reaches its midpoint. Take `O=c1[nH]nc(SCc2noc3ccccc23)nc1O`: the IC50 in data set [1] amounted to 200 nM.

`O=c1[nH]nc(SCc2ccc(-c3ccccc3)cc2)nc1O`: the IC50 in data set [1] came to 90 nM.

With `O=c1[nH]nc(SCc2ccc3cc(F)ccc3c2)nc1O`, the Stability in data set [2] was determined as 91%; in data set [3] it was 95%.

Broadly, the Tmax is the time from dosing to the highest level. Turning to `O=c1[nH]nc(CCc2ccccc2)nc1O`, the AUC came to 74200 ng·h/mL in [4] and 8070 ng·h/mL in data set [9]. Also, the “fold change (FC)” value in data set [5] turned out to be 1.7. Besides, in [6], the Tmax was 30 min. In [7], the fraction unbound was 0.26. The Stability in [2] is given as 79%; in data set [3], 98%. For the same compound, the IC50 in [1] was found to be 60 nM. The “inhibition (INH)” value in [8] was “Not Active”; in data set [10] it was “Active”.

For the compound `O=c1[nH]nc(SCC2CCCCC2)nc1O`, in data set [1], the IC50 amounted to 600 nM.

On to `O=c1[nH]nc(SCCc2ccccc2)nc1O`, for which the IC50 in data set [1] was determined as 40000 nM.

On to `O=c1[nH]nc(SCc2cccc(-c3ccccc3)c2)nc1O`, for which the half-inhibitory concentration (IC50) in data set [1] was 700 nM.

As to `O=c1[nH]nc(SCc2ccc(I)cc2)nc1O`, the IC50 in data set [1] worked out at 50 nM.

In the case of `O=c1[nH]nc(SCc2ccccc2)nc1O`, in [1], the IC50 came out at 100 nM.

With `O=c1[nH]nc(SCc2ccc(Cl)c(Cl)c2)nc1O`, the IC50 in data set [1] was 50 nM.

As for `O=c1[nH]nc(Cc2ccccc2)nc1O`, the IC50 in [1] amounted to 70 nM.

For the compound `O=c1[nH]nc(CCCc2ccccc2)nc1O`, in [1], the IC50 was 4000 nM.

Regarding `O=c1[nH]nc(SCc2ccc(Cl)cc2)nc1O`, in data set [1], the half-maximal inhibitory concentration (IC50) was found to be 30 nM.

Regarding `O=c1[nH]c(=O)n(Cc2cccc3ccccc23)nc1O`, the remaining at 1 h in data set [2] (setting [11]) and in data set [3] (setting [11]) was above 99% throughout.

Turning to `CC(C)(C)c1ccc(CSc2n[nH]c(=O)c(O)n2)cc1`, the IC50 in data set [1] stood at 300 nM.
